Non-standard residues stand in square brackets, D forms with d. Residues, ends and D or L forms follow the SMILES beside them. *: point of attachment. Phenylacetyl(2,3,4,5,6-F5) = O=C(Cc1c(F)c(F)c(F)c(F)c1F)*; Phe(F5) = N[C@@H](Cc1c(F)c(F)c(F)c(F)c1F)C(=O)O; Phe(4-Cl) = N[C@@H](Cc1ccc(Cl)cc1)C(=O)O; hArg = N=C(N)NCCCC[C@H](N)C(=O)O; 12Ado = NCCCCCCCCCCCC(=O)O; Nle = CCCC[C@H](N)C(=O)O; Orn = NCCC[C@H](N)C(=O)O; Abu = CC[C@H](N)C(=O)O
Columns and labels:
HT-29 colon cancer cells = assay: In vitro cell viability, HT-29; format: cell-based, human; details: Table 3B; 5 μM for 72 H; MIA-602 = 1
Description: The inhibitory effects of the various synthesized GHRH antagonists were tested in cell proliferation assays in various human cancer cell lines including stomach cancer (KATOIII, N87), colon cancer (HT-29), urothelial cancer (J82, RT4), pancreatic cancer (PANC-1, CFPAC-1), prostatic cancer (PC3), breast cancer (MX-1, HCC1806), ovarian cancer (SK-OV-3, OVCAR-3) and lung cancer (HCC827, H460).
(§1) Cell culture. Human cancer cell lines including pancreatic (PANC-1 and CFPAC-1), lung (HCC827 and H460), stomach (NCI-N87 and KATOIII), urothelial (J82, RT4), prostatic (PC3), breast (MX-1 and HCC 1806), colorectal (HT-29), and ovarian (SK-OV-3 and OVCAR-3) were obtained from the American Type Culture Collection (ATCC) and cultured at 37° C. in a humidified 95% air/5% CO2 atmosphere in the medium recommended by ATCC.
In vitro cell viability. Cell viability was analyzed as follows: cancer cells including pancreatic (PANC-1 and CFPAC-1), lung (HCC827 and H460), stomach (NCI-N87 and KATOIII), urothelial (J82, RT4), prostatic (PC3) and breast (MX-1 and HCC 1806), colorectal (HT-29) and ovarian (SK-OV-3 and OVCAR-3) were grown on 96 well plates to ˜60% confluence, the cells were starved for 24 h in culture medium containing 0.5% FBS. Cells were then treated with GHRH antagonists MIA602 AVR compounds at concentrations of 1, 2.5 or 5 μM, or vehicle (0.1% DMSO) in quintuplicates for 72 hours. The medium was replaced every 48 hours. Cell viability was measured using CellTiter 96 aqueous one solution kit (Promega). Inhibitory effects of tested AVR compounds in comparison to that of MIA602 are presented as inhibitory potency.
Inhibitory effects of selected AVR compounds in comparison to that of MIA602 are presented as inhibitory potency (e.g., percentage of inhibition). […] The cell lines tested including lung cancer HCC827 (FIG. 2A), pancreatic cancer CFPAC-1 (FIG. 2B), stomach cancer N87 (FIG. 2C), colon cancer HT-29 (FIG. 2D), breast cancers MX-1 and HCC1806 (FIGS. 2 E, F). Based on the results of cell proliferation assay after cancer cells were treated with antagonist at concentration of 5 μM for 72H, the relative inhibitory potency of AVR antagonists in comparison to MIA-602 is summarized in Table 3 A and B. Over 60 AVR compounds were tested in 12 cancer cell lines.
Based on the results of cell proliferation assay after cancer cells were treated with antagonist at concentration of 5 µM for 72H, * at concentration of 2 µM for 72 H.

[1] = system: lung cancer HCC827 xenograft; assay: Xenograft tumor growth in nude mice, HCC827; format: in vivo; details: for % Inhibition: vs control
Description: The peptides' activity was compared with GHRH antagonist MIA-602. All statistical analyzses were performed from comparing GHRA antagonists to non-treated tumor (control).
Peptides and chemicals. GHRH antagonists MIA-602 and AVR-GHRH antagonists (see Table 2 above) were synthesized by solid phase methods and purified by HPLC. The peptides were dissolved in DMSO and further diluted in 10% 1,2-propanediol. The final concentration of peptides was 50 µg/ml in 10% 1,2-propanediol containing 0.1% of DMSO.
as §1, with “(NCI-N87), prostate” for “(NCI-N87 and KATOIII), urothelial (J82, RT4), prostatic”, “brest” for “breast”, “HCC-1806),” for “HCC 1806),”
Xenograft models of human cancers in nude mice. Female athymic (NCr nu/nu) nude mice, 5- to 6-weeks-old, obtained from the Envigo labs (Tampa, Fla.), were housed in laminar airflow cabinets under pathogen-free conditions with a 12-h light/12-h dark schedule, and were fed autoclaved standard chow and water. To generate mice with xenografted tumors, tumor xenografts were initiated by subcutaneous (s.c.) injection of 107 human cancer cells into female nude mice. After about 4 weeks the resulting tumors were dissected and collected after removing necrosis tissues. The tumors were then cut into particles with size of 3 mm3 and transplanted s.c. by trocar needle into experimental animals. When tumors grew to the size of 50-60 mm3 (by volume), mice were randomized into groups and treated daily for 4-8 weeks by subcutaneous administration of 5 μg of GHRH antagonists MIA-602 or AVR-compounds (2-10 μg as indicated), or vehicle solutions (0.1% DMSO in 10% 1,2-propanediol) respectively. Tumor sizes were measured weekly.
Statistical analysis. One-way ANOVA followed by Bonferroni comparison were performed. Data are expressed as Mean±SEM. To determine statistical significance between animal groups, two-tailed Student's t-test was conducted. Differences were considered significant when p<0.05.
Results. […] FIG. 1A-N represents in vivo inhibition of tumor growth during the treatment with GHRH antagonist MIA-602 and selected AVR antagonists in nude mice xenografted with various human tumors including pancreatic cancer PANC-1 (FIG. 1A) and CFPAC-1 (FIG. 1I); lung cancer HCC827 (FIGS. 1B, C) and H460 (FIG. 1H); stomach cancer N87 (FIGS. 1D-F); colon cancer HT-29 (FIG. 1G); breast cancer MX-1 and HCC-1806 (FIGS. 1J, K); ovarian cancer SK-OV-3 and OVACAR-3 (FIGS. 1 L, M) and prostate cancer PC3 (FIG. 1N). See also Table 5.

[2] = Table 4B, Lung Ca HCC827, 7 weeks, 5 μg/day s.c.
[3] = Table 4C, Lung Ca HCC827, 8 weeks, 2.5 μg/day s.c.
[4] = Table 4C, Lung Ca HCC827, 8 weeks, 5 μg/day s.c.
[5] = Table 4C, Lung Ca HCC827, 8 weeks, 10 μg/day s.c.

| SMILES | In vitro relative inhibitory potency in comparison to MIA-602, HT-29 (HT-29 colon cancer cells) | Tumor Growth % [1, 2] [%] | % Inhibition [1, 2] [%] | Tumor Growth % [1, 3] [%] | % Inhibition [1, 3] [%] | Tumor Growth % [1, 4] [%] | % Inhibition [1, 4] [%] | Tumor Growth % [1, 5] [%] | % Inhibition [1, 5] [%] |
| --- | --- | --- | --- | --- | --- | --- | --- | --- | --- |
| CCCC[C@H](NC(=O)[C@@H](NC(=O)[C@H](CC(=O)O)NC(=O)[C@H](CCC(N)=O)NC(=O)[C@H](CC(C)C)NC(=O)[C@H](CC(C)C)NC(=O)[C@H](CCCCN)NC(=O)[C@H](CCCNC(=N)N)NC(=O)[C@H](C)NC(=O)[C@H](CO)NC(=O)[C@H](CC(C)C)NC(=O)[C@H](CCC(N)=O)NC(=O)[C@H](CC)NC(=O)[C@H](CC(C)C)NC(=O)[C@@H](NC(=O)[C@H](CCCCN)NC(=O)[C@H](CCCNC(=N)N)NC(=O)[C@H](Cc1ccc(OC)cc1)NC(=O)[C@H](CCCCNC(=N)N)NC(=O)[C@H](C)NC(=O)[C@@H](NC(=O)[C@H](Cc1c(F)c(F)c(F)c(F)c1F)NC(=O)[C@@H](NC(=O)[C@H](C)NC(=O)[C@H](CC(=O)O)NC(=O)[C@@H](CCCNC(=N)N)NC(=O)[C@H](Cc1ccc(O)cc1)NC(=O)CCCCCCCCCCCNC(=O)Cc1c(F)c(F)c(F)c(F)c1F)[C@@H](C)CC)[C@@H](C)O)C(C)C)[C@@H](C)CC)C(=O)N[C@H](CCCNC(=N)N)C(=O)N[C@@H](CCCCNC(=N)N)C(=O)NCCCCCCCCCCCC(N)=O [AVR-352, 5FPhAC-Ada-Tyr-DArg-Asp-Ala-Ile-5FPhe-Thr-Ala-Har-Tyr(Me)-Arg-Lys-Val-Leu-Abu-Gln-Leu-Ser-Ala-Arg-Lys-Leu-Leu-Gln-Asp-Ile-Nle-DArg-Har-Ada-NH2] ({Phenylacetyl(2,3,4,5,6-F5)-12Ado}-Y[dR]DAI[Phe(F5)]TA[hArg]Y(Me)RKVL[Abu]QLSARKLLQDI[Nle][dR][hArg][12Ado]-NH2) | 1.197 | 371.7 | 71.6 |  |  |  |  |  |  |
| CCCC[C@H](NC(=O)[C@@H](NC(=O)[C@H](CC(=O)O)NC(=O)[C@H](CCC(N)=O)NC(=O)[C@H](CC(C)C)NC(=O)[C@H](CC(C)C)NC(=O)[C@H](CCCCN)NC(=O)[C@H](CCCNC(=N)N)NC(=O)[C@H](C)NC(=O)[C@H](CO)NC(=O)[C@H](CC(C)C)NC(=O)[C@H](CCC(N)=O)NC(=O)[C@H](CC)NC(=O)[C@H](CC(C)C)NC(=O)[C@@H](NC(=O)[C@H](CCCCN)NC(=O)[C@H](CCCNC(=N)N)NC(=O)[C@H](Cc1c(F)c(F)c(F)c(F)c1F)NC(=O)[C@H](CCCCNC(=N)N)NC(=O)[C@H](C)NC(=O)[C@@H](NC(=O)[C@H](Cc1ccc(Cl)cc1)NC(=O)[C@@H](NC(=O)[C@H](C)NC(=O)[C@H](CC(=O)O)NC(=O)[C@@H](CCCNC(=N)N)NC(=O)[C@H](Cc1ccc(O)cc1)NC(=O)CCCCCCCCCCCNC(=O)Cc1c(F)c(F)c(F)c(F)c1F)[C@@H](C)CC)[C@@H](C)O)C(C)C)[C@@H](C)CC)C(=O)N[C@H](CCCNC(=N)N)C(=O)N[C@@H](CCCCNC(=N)N)C(=O)NCCCCCCCCCCCC(N)=O [AVR-353, 5FPhAC-Ada-Tyr-DArg-Asp-Ala-Ile-Cpa-Thr-Ala-Har-5FPhe-Arg-Lys-Val-Leu-Abu-Gln-Leu-Ser-Ala-Arg-Lys-Leu-Leu-Gln-Asp-Ile-Nle-DArg-Har-Ada-NH2] ({Phenylacetyl(2,3,4,5,6-F5)-12Ado}-Y[dR]DAI[Phe(4-Cl)]TA[hArg][Phe(F5)]RKVL[Abu]QLSARKLLQDI[Nle][dR][hArg][12Ado]-NH2) | 1.222 | 380.3 | 71.0 | 545.65 | 35.1 | 420.79 | 50.0 | 359.16 | 57.3 |
| CCCC[C@H](NC(=O)[C@@H](NC(=O)[C@H](CC(=O)O)NC(=O)[C@H](CCC(N)=O)NC(=O)[C@H](CC(C)C)NC(=O)[C@H](CC(C)C)NC(=O)[C@H](CCCN)NC(=O)[C@H](Cc1c[nH]cn1)NC(=O)[C@H](C)NC(=O)[C@H](CO)NC(=O)[C@H](CC(C)C)NC(=O)[C@H](CCC(N)=O)NC(=O)[C@H](CC)NC(=O)[C@H](CC(C)C)NC(=O)[C@@H](NC(=O)[C@H](CCCN)NC(=O)[C@H](Cc1c[nH]cn1)NC(=O)[C@H](Cc1c(F)c(F)c(F)c(F)c1F)NC(=O)[C@H](CCCCNC(=N)N)NC(=O)[C@H](C)NC(=O)[C@@H](NC(=O)[C@H](Cc1ccc(Cl)cc1)NC(=O)[C@@H](NC(=O)[C@H](C)NC(=O)[C@H](CC(=O)O)NC(=O)[C@@H](CCCNC(=N)N)NC(=O)[C@H](Cc1ccc(O)cc1)NC(=O)CCCCCCCCCCCNC(=O)Cc1c(F)c(F)c(F)c(F)c1F)[C@@H](C)CC)[C@@H](C)O)C(C)C)[C@@H](C)CC)C(=O)N[C@H](CCCNC(=N)N)C(=O)N[C@@H](CCCCNC(=N)N)C(=O)NCCCCCCCCCCCC(=O)NC [AVR-543, 5FPhAC-Ada-Tyr-DArg-Asp-Ala-Ile-Cpa-Thr-Ala-Har-5FPhe-His-Orn-Val-Leu-Abu-Gln-Leu-Ser-Ala-His-Orn-Leu-Leu-Gln-Asp-Ile-Nle-DArg-Har-Ada-NHCH3] ({Phenylacetyl(2,3,4,5,6-F5)-12Ado}-Y[dR]DAI[Phe(4-Cl)]TA[hArg][Phe(F5)]H[Orn]VL[Abu]QLSAH[Orn]LLQDI[Nle][dR][hArg][12Ado]-NHMe) | 0.999 | 806.0 | 38.6 |  |  |  |  |  |  |

From patent US20210395327A1, “Growth Hormone-Releasing Hormone Antagonists and Uses Thereof” (United States Government As Represented By The Department …, priority 2019, published 2021)
